The record followed here is patent US8703961B2, “Thiazole derivatives for the treatment of diseases such as cancer” (Merck Patent GmbH, priority 2009, dated 2014).

What all share (assay): filter binding kinase assay
Common to all, as to assay type: biochemical

The target of assay [1] is T1, AKT1 (Homo sapiens, UniProt P31749).
T1 construct: purchased
The conditions noted are these: derived from % inhibition at 1 μM. In a few lines:
(§1)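 Kinase activity is measured at room temperature by filter binding, with incorporated radiolabel counted after acid termination. A 5-minute preincubation of compound, enzyme and substrate precedes addition of ATP from a kinase-dependent stock (5, 20 or 50 […]).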

In assay [2] the target is T2, ROCK2 (Rock II) (Homo sapiens, UniProt O75116).
T2 construct: purchased
As to conditions: for IC50: derived from % inhibition at 1 μM. Put shortly: as §1

Assay [3] deals with T3, STK3 (Homo sapiens, UniProt Q13188).
T3 construct: purchased
T3 sequence (Q13188 1-491): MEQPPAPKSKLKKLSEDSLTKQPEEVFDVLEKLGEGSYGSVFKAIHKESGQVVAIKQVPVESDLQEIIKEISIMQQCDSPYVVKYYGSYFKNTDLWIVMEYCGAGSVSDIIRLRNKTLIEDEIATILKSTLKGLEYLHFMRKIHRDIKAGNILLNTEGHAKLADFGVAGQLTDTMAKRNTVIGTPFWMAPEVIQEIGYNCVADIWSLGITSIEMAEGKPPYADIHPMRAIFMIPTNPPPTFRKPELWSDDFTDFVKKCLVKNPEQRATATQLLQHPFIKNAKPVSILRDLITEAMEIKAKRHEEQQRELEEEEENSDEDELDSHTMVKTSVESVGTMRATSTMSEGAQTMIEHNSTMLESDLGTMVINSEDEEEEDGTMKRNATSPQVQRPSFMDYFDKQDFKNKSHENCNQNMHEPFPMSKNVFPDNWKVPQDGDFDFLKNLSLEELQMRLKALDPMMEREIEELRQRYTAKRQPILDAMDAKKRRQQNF
The conditions noted are these: derived from % inhibition at 1 μM. In a few lines:
as §1

Assay [4] concerns the target T4, SGK (Homo sapiens, UniProt O00141).
T4 construct: purchased
T4 sequence (O00141 1-431): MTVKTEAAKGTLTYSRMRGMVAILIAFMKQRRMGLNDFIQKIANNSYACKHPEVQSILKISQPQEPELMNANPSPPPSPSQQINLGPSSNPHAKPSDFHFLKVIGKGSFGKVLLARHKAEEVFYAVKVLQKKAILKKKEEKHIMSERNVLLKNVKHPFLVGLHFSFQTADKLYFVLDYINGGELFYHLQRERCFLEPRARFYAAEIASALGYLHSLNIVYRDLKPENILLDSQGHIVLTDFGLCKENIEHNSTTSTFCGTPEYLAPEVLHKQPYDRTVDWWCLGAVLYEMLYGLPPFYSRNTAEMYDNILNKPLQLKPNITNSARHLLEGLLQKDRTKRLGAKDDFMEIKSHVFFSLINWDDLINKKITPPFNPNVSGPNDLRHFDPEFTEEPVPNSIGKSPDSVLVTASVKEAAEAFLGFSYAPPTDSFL
As to conditions: derived from % inhibition at 1 μM. Put shortly: as §1

For assay [5], the target named is T5, MAP3K9 (Homo sapiens, UniProt P80192).
T5 construct: purchased
The conditions noted are these: derived from % inhibition at 1 μM. In a few lines: as §1

Assay [6] addresses T6, MARK2 (Homo sapiens, UniProt Q7KZI7).
T6 construct: purchased
As to conditions: for IC50: derived from % inhibition at 1 μM. In a few lines: as §1

For assay [7], the target named is T7, CSK (Homo sapiens, UniProt P41240).
T7 construct: purchased
The conditions noted are these: derived from % inhibition at 1 μM. Put shortly: as §1

Assay [8] addresses T8, PRKD2 (Homo sapiens, UniProt Q9BZL6).
T8 construct: purchased
T8 sequence (Q9BZL6 1-878): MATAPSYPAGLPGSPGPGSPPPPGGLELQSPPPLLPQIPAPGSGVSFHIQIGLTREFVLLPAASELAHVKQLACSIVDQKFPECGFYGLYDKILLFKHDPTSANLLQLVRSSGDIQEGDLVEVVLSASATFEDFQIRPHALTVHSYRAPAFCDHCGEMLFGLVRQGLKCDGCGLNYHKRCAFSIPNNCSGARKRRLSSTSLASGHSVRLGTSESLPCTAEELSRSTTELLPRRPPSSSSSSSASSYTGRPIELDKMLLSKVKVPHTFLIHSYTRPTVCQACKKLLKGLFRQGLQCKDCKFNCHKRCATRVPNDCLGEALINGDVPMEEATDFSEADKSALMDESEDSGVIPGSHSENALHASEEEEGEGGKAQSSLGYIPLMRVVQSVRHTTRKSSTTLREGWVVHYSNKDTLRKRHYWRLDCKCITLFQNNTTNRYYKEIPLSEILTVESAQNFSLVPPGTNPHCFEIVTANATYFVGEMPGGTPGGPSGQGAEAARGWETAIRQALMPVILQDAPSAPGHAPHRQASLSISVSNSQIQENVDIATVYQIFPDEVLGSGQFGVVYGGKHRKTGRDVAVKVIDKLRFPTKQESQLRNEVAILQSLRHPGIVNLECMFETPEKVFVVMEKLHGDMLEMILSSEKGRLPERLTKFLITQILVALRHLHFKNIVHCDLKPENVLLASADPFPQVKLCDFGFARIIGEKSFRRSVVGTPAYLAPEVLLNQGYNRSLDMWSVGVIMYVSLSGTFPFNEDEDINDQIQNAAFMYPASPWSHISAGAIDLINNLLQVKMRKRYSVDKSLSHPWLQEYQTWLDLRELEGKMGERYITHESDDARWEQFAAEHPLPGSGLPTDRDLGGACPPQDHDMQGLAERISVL
The conditions noted are these: derived from % inhibition at 1 μM. In a few lines: as §1

The target of assay [9] is T9, MELK (Homo sapiens, UniProt Q14680).
T9 construct: purchased
As to conditions: derived from % inhibition at 1 μM. Put shortly: as §1

The target of assay [10] is T10, LCK (Homo sapiens, UniProt P06239).
T10 construct: purchased
As to conditions: derived from % inhibition at 1 μM. Put shortly:
as §1

Assay [11] concerns the target T11, CSNK1D (Homo sapiens, UniProt P48730).
T11 construct: purchased
The conditions noted are these: derived from % inhibition at 1 μM. Put shortly: as §1

Assay [12] deals with T12, SRPK1 (Homo sapiens, UniProt Q96SB4).
T12 construct: purchased
As to conditions: derived from % inhibition at 1 μM. In a few lines: as §1

The target in assay [13] is T13, PAK6 (Homo sapiens, UniProt Q9NQU5).
T13 construct: purchased
As to conditions: derived from % inhibition at 1 μM. Put shortly: as §1

T13 sequence (Q9NQU5 whole entry, species assumed): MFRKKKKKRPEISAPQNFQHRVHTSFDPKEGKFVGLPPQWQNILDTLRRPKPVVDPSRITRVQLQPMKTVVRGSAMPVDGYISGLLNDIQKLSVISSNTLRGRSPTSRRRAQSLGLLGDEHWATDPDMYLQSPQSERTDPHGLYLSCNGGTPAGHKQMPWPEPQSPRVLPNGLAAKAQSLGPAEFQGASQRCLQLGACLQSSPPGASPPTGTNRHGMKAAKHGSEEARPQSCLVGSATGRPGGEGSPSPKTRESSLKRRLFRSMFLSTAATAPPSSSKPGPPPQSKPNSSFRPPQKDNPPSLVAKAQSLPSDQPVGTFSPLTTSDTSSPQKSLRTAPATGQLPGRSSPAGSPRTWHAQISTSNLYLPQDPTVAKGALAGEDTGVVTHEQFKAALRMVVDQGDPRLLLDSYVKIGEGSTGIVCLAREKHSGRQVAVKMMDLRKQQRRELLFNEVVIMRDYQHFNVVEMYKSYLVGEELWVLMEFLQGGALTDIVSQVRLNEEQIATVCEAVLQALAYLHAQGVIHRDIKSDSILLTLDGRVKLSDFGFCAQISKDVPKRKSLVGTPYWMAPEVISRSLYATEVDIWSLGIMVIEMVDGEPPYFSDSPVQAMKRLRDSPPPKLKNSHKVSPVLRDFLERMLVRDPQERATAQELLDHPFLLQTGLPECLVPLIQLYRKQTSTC
T11 sequence (P48730 whole entry, species assumed): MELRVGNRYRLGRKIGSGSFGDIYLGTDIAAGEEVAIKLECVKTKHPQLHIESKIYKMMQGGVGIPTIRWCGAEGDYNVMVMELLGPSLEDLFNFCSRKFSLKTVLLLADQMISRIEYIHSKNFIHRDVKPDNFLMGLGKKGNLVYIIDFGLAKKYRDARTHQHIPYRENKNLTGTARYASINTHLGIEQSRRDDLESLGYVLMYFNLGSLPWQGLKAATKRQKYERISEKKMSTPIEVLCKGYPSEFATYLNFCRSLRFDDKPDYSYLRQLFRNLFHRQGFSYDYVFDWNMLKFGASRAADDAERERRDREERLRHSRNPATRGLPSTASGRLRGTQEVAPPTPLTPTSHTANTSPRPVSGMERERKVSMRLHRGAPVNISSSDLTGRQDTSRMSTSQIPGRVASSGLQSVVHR
T12 sequence (Q96SB4 whole entry, species assumed): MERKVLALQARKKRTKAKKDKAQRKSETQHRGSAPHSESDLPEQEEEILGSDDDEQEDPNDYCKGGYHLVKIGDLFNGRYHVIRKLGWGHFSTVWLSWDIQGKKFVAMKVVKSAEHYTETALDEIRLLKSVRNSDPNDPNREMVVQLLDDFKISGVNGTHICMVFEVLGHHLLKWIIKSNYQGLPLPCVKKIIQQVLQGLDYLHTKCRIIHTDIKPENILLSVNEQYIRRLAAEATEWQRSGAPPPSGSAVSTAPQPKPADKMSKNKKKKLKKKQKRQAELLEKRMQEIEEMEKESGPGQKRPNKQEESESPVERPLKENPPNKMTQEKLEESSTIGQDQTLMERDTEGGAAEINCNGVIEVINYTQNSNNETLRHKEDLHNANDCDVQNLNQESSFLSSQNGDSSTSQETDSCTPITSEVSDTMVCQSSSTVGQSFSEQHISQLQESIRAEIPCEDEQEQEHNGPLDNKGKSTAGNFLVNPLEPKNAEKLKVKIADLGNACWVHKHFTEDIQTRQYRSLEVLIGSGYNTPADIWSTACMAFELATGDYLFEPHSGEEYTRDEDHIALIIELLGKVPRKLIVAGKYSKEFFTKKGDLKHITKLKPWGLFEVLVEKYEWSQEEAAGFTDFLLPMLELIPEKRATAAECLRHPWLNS
T9 sequence (Q14680 whole entry, species assumed): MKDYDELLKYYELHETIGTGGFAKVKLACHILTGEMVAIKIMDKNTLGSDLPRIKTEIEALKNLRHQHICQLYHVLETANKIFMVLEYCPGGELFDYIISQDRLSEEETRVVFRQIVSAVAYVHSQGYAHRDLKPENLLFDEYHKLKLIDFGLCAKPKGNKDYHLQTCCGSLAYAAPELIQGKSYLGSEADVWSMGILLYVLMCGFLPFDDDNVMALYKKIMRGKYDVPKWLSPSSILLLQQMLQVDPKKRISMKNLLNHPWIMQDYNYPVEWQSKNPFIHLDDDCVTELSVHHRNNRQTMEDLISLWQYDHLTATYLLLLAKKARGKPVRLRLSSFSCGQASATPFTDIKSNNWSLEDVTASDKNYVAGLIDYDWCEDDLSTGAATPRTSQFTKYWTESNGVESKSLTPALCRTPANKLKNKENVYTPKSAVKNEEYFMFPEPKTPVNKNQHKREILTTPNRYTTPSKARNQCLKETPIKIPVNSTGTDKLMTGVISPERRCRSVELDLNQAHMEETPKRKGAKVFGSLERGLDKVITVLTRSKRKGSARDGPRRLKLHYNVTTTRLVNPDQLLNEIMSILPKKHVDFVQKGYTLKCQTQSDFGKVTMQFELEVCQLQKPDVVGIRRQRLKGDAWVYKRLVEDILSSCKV
T5 sequence (P80192 whole entry, species assumed): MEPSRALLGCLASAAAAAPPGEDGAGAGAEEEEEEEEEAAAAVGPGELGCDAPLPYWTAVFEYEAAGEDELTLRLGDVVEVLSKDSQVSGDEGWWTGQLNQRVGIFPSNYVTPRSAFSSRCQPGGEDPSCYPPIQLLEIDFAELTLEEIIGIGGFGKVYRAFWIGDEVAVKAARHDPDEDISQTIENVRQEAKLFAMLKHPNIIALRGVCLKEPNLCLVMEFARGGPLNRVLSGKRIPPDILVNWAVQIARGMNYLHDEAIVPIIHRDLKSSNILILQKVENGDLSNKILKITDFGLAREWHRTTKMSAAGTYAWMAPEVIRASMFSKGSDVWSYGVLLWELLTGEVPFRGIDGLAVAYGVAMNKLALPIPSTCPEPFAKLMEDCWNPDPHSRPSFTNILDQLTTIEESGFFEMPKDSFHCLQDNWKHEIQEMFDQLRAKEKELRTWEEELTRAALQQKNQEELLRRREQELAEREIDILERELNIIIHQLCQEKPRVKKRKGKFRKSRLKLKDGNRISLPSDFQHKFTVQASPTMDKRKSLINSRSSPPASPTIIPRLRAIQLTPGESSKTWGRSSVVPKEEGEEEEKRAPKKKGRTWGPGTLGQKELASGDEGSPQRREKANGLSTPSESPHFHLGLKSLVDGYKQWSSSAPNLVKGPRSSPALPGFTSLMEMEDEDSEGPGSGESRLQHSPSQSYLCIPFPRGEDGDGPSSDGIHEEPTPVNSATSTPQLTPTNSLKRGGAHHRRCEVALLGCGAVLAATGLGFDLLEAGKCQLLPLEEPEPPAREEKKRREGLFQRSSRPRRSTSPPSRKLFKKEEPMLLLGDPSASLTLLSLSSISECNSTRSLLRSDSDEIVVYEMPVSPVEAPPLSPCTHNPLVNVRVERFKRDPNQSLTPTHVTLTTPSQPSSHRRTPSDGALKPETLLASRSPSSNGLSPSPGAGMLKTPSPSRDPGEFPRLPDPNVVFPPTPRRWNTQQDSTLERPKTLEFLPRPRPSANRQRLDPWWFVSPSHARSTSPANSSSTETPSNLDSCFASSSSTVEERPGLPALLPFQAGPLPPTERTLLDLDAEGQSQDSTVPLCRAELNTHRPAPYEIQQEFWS
T1 sequence (P31749 whole entry, species assumed): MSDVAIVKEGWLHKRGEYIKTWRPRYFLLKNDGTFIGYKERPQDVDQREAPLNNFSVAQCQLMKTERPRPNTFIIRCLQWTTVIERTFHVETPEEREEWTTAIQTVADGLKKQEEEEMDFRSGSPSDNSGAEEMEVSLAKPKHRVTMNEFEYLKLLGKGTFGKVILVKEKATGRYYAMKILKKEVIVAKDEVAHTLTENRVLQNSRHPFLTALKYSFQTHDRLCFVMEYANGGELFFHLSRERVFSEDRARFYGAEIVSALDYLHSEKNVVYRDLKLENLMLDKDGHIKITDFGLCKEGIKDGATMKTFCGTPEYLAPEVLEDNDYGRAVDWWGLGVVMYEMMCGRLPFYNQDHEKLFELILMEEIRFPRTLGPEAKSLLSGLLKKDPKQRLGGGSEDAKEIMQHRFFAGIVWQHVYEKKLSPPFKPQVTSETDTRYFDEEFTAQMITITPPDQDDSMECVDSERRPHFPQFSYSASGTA
T7 sequence (P41240 whole entry, species assumed): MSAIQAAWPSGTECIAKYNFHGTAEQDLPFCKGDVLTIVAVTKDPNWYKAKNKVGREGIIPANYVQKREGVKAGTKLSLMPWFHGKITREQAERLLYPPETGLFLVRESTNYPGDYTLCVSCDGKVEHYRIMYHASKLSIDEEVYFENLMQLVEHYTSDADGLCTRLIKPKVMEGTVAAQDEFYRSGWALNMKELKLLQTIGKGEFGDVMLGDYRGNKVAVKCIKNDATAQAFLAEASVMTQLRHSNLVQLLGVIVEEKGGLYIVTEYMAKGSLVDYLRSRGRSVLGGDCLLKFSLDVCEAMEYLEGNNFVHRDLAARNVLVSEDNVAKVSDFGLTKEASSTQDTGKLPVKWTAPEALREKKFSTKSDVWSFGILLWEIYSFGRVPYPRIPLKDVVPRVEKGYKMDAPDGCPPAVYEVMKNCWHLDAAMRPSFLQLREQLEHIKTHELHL
T10 sequence (P06239 whole entry, species assumed): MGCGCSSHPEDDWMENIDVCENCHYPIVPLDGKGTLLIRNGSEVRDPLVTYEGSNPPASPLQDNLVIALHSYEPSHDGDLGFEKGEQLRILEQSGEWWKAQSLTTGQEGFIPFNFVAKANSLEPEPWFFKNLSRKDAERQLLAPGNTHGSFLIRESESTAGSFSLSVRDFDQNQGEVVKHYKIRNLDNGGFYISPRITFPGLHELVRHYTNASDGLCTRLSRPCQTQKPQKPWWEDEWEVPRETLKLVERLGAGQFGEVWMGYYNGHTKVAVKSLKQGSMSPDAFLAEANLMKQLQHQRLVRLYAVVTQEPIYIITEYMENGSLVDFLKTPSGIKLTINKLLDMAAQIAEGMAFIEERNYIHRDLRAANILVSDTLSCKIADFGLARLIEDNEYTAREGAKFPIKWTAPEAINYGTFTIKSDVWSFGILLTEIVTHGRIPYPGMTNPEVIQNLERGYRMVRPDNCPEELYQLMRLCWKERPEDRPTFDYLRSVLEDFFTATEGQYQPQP

What is called IC50 is the concentration that gives 50% inhibition. `c1ccc(Cc2c[nH]c3ncsc23)cc1` [Compound A7, 6-benzyl-4H-pyrrolo[2,3-d]thiazole]: the IC50 in [1] is above 1 µM; in [2], 0.01 to 1 µM; in [3] it was 1 to 10 µM; in assay [4], above 1 µM; in assay [5], 1 to 10 µM; in [6] it was 10 to 100 µM. The IC50 in assay [7] is 1 to 10 µM; in assay [8], 1 to 10 µM; in assay [9] it was 1 to 10 µM; in assay [10] it was 10 to 100 µM; in [11], 1 to 10 µM; in [12], 10 to 100 µM. Moreover, the IC50 in [13] is above 1 µM. Also, in assay [2] (read-out: residual kinase activity Rock II), the remaining activity at 1 µM was found to be 36%.
Consider `Nc1ncsc1C#Cc1cnc2[nH]ccc2c1` [Compound A22, 5-(1H-pyrrolo[2,3-b]pyridin-5-ylethynyl)thiazol-4-ylamine], for which the IC50 in [1] was 10 to 100 µM; in assay [2], above 1 µM; in assay [3], 10 to 100 µM; in [4] it was 1 to 10 µM; in assay [5], 1 to 10 µM; in assay [6] it was 0.01 to 1 µM. In addition, the IC50 in [7] was 10 to 100 µM; in assay [8] it was above 1 µM; in assay [9] it was above 1 µM; in assay [10] it was above 1 µM; in [11] it was 10 to 100 µM; in assay [12], above 1 µM. In assay [13], the IC50 was in the range of 10 to 100 µM. Also, in assay [6] (read-out: residual kinase activity MARK2), the remaining activity at 1 µM was found to be 31%.
For the compound `CC(C)(C)OC(=O)Nc1nc(-c2ccncc2)sc1C#CCN1CCOCC1` [Compound A25, tert-butyl[5-(3-morpholin-4-ylprop-1-ynyl)-2-pyridin-4-ylthiazol-4-yl]-carbamate], the IC50 in [1] was above 1 µM; in assay [2] it was 10 to 100 µM; in assay [3], above 1 µM; in assay [4] it was 10 to 100 µM; in [5] it was above 1 µM; in [6] it was above 1 µM. Further, the IC50 in [7], in assay [8], in [9], in assay [10], in [11] and in [12] was above 1 µM each time. Further, the IC50 in assay [13] was in the range of 10 to 100 µM.
As to `CC(C)(C)OC(=O)Nc1ncsc1C#CCN1C(=O)c2ccccc2C1=O` [Compound A26, tert-butyl{5-[3-(1,3-dioxo-1,3-dihydroisoindol-2-yl)prop-1-ynyl]-thiazol-4-yl}carbamate], the half-inhibitory concentration (IC50) is above 1 µM in assay [1]; above 1 µM in [2]; above 1 µM in [3]; 1 to 10 µM in assay [4]; 1 to 10 µM in [5]; 1 to 10 µM in assay [6]. Further, the IC50 in assay [7] was 10 to 100 µM; in assay [8], above 1 µM; in assay [9], above 1 µM; in assay [10], above 1 µM; in [11], above 1 µM; in assay [12] it was above 1 µM. The compound also registered an IC50 in assay [13] above 1 µM.
Consider `Nc1ncsc1C#Cc1cccc(O)c1` [Compound A27, 3-(4-aminothiazol-5-ylethynyl)phenol], for which the IC50 was above 1 µM in [1]; 10 to 100 µM in assay [2]; 1 to 10 µM in assay [3]; above 1 µM in [4]; 1 to 10 µM in [5]; 10 to 100 µM in [6]. Besides, the IC50 fell in the range of 10 to 100 µM in assay [7]; 1 to 10 µM in assay [8]; 1 to 10 µM in assay [9]; 1 to 10 µM in assay [10]; 1 to 10 µM in assay [11]; 1 to 10 µM in assay [12]. In assay [13], this compound gave an IC50 of 10 to 100 µM.
